Reference: patent publication EP0158545A1, “[Alpha-(alkylaminomethyl)-benzylthio]-acetic-acid derivatives, process for their preparation and their therapeutic use” (priority 1984, dated 1985)
Entries after “also recorded” stand apart in the source; their conditions may differ.

Assays:
[1] = system: souris; test: Behavioural despair (forced immersion), mouse; type: in vivo; details: I.P., doses de 32 et 128 mg/kg
Excerpt: On note la durée totale d'immobilité entre la 2ème et la 6ème minutes suivant l'immersion.

[2] = system: souris; test: Four-plate test, traction and electroshock, mouse; type: in vivo
Description: Le test est pratiqué sur des lots de 10 souris 0,50 h après l'administration du produit à étudier.

[3] = system: souris; test: Intergroup aggressiveness, mouse; type: in vivo; details: I.P., aux doses utilisées
Description: Après avoir séjourné pendant 3 semaines dans chacune des moitiés d'une cage séparées par une cloison opaque, des groupes de 3 souris reçoivent le CRL 41 190. Une demi-heure plus tard, les deux groupes d'une même cage sont réunis par retrait de la cloison et on note le nombre de combats qui surviennent en 10 minutes.

[4] = system: l'homme; test: Clinical treatment of depression, oral administration; type: in vivo
[5] = system: souris; test: Asphyxic anoxia (gallamine triethiodide), mouse; type: in vivo; details: product I.P. half an hour before triiodoéthylate de gallamine 32 mg/kg I.P.
[6] = system: rats; test: Interaction with amphetamine (stereotypies), rat; type: in vivo; details: amphétamine 2 mg/kg I.P., doses de 4 mg/kg, 16 mg/kg et surtout 64 mg/kg
Description: L'amphétamine (2 mg/kg) est injectée par voie intrapéritonéale à des lots de 6 rats, une demi -heure après l'administration de CRL 41 190.

[7] = system: rat; test: Interaction with apomorphine, rat; type: in vivo; details: product I.P. 0,50 h before s.c. 0,5 mg/kg apomorphine
[8] = system: souris; details: I.P., plus forte dose utilisée (128 mg/kg)
[9] = system: souris; test: Interaction with apomorphine, mouse; type: in vivo
Description: • 1°) chez la souris • Des lots de 6 souris reçoivent le produit à étudier 0,50 h avant une injection sous-cutanée de 1 mg/kg ou 16 mg/kg d'apomorphine.

[10] = system: rat; test: Global behaviour and reactivities, rat; type: in vivo; details: I.P.
Description: (§1) On a résumé ci-après les résultats des essais neuropsychopharmacologiques qui ont été entrepris avec les produits préférés selon l'invention, le CRL 41 190 (Ex 1) et le CRL 41 214 (Ex 3). Dans ce résumé, les deux produits à tester mis en solution dans de l'eau distillée ont été administrés, sauf indiction contraire, par voie intrapéritonéale sous un volume de 20 ml/kg chez la souris mâle et sous un volume de 5 ml/kg chez le rat mâle. […]
(§2) Des lots de trois animaux sont observés avant puis 0,25 h, 0,5, h, 1 h, 2 h, 3 h et 24 h après administration de CRL 41 190.

[11] = system: souris; test: Spontaneous motility (actimeter), mouse; type: in vivo; details: souris, I.P.; plus forte dose utilisée (128 mg/gk)
[12] = system: souris mâle; details: in vivo
Description: as §1
La DL-0 (dose maximale non mortelle) du CRL 41 190 est supérieure à 128 mg/kg par voie I.P. chez la souris mâle, et la DL-30 est de l'ordre de 256 mg/kg.
Par voie I.P. chez la souris mâle, la DL-0 est supérieure à 256 mg/kg.

[13] = system: souris; test: Interaction with reserpine (hypothermia, ptosis), mouse; type: in vivo; details: réserpine 2,5 mg/kg I.P.
Description: Quatre heures après l'injection intrapéritonéale de 2,5 mg/kg de réserpine, des lots de 12 souris reçoivent le CRL 41 190. On étudie l'influence du produit à tester sur l'hypothermie et le ptôsis réserpiniques.

[14] = system: souris; test: Global behaviour and reactivities, mouse; type: in vivo; details: I.P.
Description: as §1, §2

[15] = system: souris; test: Interaction with barbital (sleep duration), mouse; type: in vivo; details: barbital 220 mg/kg I.P., plus forte dose utilisée (128 mg/kg)
[16] = system: souris; test: Interaction with oxotremorine, mouse; type: in vivo; details: oxotrémorine 0,5 mg/kg I.P.
[17] = system: souris; test: Motility reduced by habituation to the enclosure, mouse; type: in vivo; details: I.P., plus forte dose utilisée (128 mg/kg)
[18] = system: système nerveux central (SNC); test: General statement of CNS (antidepressant, sedative) properties; type: in vivo
[19] = system: chiens; test: Influence on isoprenaline effects, dog; type: in vivo; details: chien, isoprénaline 10 µg/kg I.V., dose cumulée de 19,1 mg/kg I.D.
[20] = system: chiens; test: Cardiovascular tests in dogs, intraduodenal successive doses; type: in vivo, chien
Description: a) Quatre chiens (poids moyen : 13,8 kg) anesthésiés au nembutal reçoivent le CRL 41 250 par voie intraduodénale, aux doses successives de 0,1 mg/kg, 0,5 mg/kg, 1 mg/kg, 2,5 mg/kg, 5 mg/kg puis 10 mg/kg. On mesure la pression artérielle, la fréquence cardiaque, le débit artériel fémoral, le débit artériel vertébral, la température rectale et on observe la coloration de la peau.
a) Deux chiens (poids moyen : 14,5 kg) reçoivent le CRL 41 252 par voie intraduodénale, aux doses successives de 0,1 mg/kg, 0,5 mg/kg, 1 mg/kg, 2,5 mg/kg, 5 mg/kg, 10 mg/kg et 20 mg/kg. On mesure la pression artérielle, la fréquence cardiaque, le débit artériel fémoral, le débit artériel vertébral, les températures rectale et cutanée et on observe la coloration de la peau.

[21] = system: chiens; test: Influence on noradrenaline hypertension, dog; type: in vivo; details: chien
Description: (§3) b) Sur les mêmes chiens on a étudié l'influence du produit vis à vis de l'isoprénaline et de la noradrénaline.
L'hyptertension à la noradrénaline (2 µg/kg I.V.) est augmentée par le CRL 41 252 ([…]), la pression artérielle systolique passe de 208 à 352 mmHg (soit environ de 2,77 x 10^4 à 4,7 x 10^4Pa) au lieu de 204 à 328 mmHg (soit environ de 2,71 à 4,3 x 10 Pa).

[22] = system: chiens; test: Influence on isoprenaline effects, dog; type: in vivo; details: chien, after dose cumulée 19,1 mg/kg I.D.
Excerpt: as §3
Avec 10,pg/kg I.V. d'isoprénaline la pression artérielle diastolique du CRL 41 252 passe de 128 à […] ([…] à 6,4 x 10^3 Pa), […]

[23] = souris, 0,50 h after I.P. administration
[24] = dès la dose de 8 mg/kg, mais surtout aux doses de 32 mg/kg et 128 mg/kg

CC(C)(C)NCC(SCC(=O)NO)c1ccccc1 (racemic) [CRL 41 214, chlorhydratede l'acide [α-(tertiobutyl-aminométhyl)-benzyl]-thioacétohydroxamique]
durée de l'immobilité de la souris placée en immersion forcée [1]: diminue très modérément la durée de l'immobilité de la souris placée en immersion forcée
effets convulsivants de l'électrochoc [2, 23]: ne modifie pratiquement pas les effets convulsivants
incapacité motrice (traction) [2, 23]: ne provoque pas d'incapacité motrice majeure
nombre de passages punis (test des quatre plaques) [2, 23]: n'entraîne pas d'augmentation nette du nombre de passages punis
effets létaux de l'électrochoc ([2]; souris, I.P., dose de 128 mg/kg): aggrave, à la dose de 128 mg/kg, les effets létaux de l'électrochoc
nombre de combats [3]: ne modifie pratiquement pas le nombre de combats
traitement des dépressions chez l'homme ([4]; administration orale, gélules ou comprimés 25 mg ou 50 mg, 1 à 2 prises par jour, deux à trois semaines): bons résultats
propriétés antidépressives chez les personnes agées ([4]; clinical, oral): se manifestaient de façon très bénéfique chez les personnes agées
délai d'apparition des convulsions et de la mort consécutives à une anoxie asphyxique [5]: diminue très modérément le délai d'apparition des convulsions et de la mort
stéréotypies amphétaminiques [6]: potentialise nettement les stéréotypies amphétaminiques
stéréotypies induites par l'apomorphine [7]: laisse inchangées les stéréotypies induites par l'apomorphine
récupération motrice après anoxie hypobare aigue [8]: semble entraîner une amélioration très modérée de la récupération motrice
hypothermie induite par l'apomorphine ([9]; I.P., dès la dose de 2 mg/kg, mais surtout aux doses de 32 mg/kg à 128 mg/kg): antagonise l'hypothermie induite par l'apomorphine
comportements de verticalisation et stéréotypies (apomorphine) ([9]; product I.P. 0,50 h before s.c. apomorphine): ne sont pratiquement pas modifiés
comportement global et réactivités ([10]; dose de 16 mg/kg): une mydriase d'une durée de 2 h qui est maximale 0,5 h après administration
comportement global et réactivités ([10]; dose de 64 mg/kg): une diminution de la fréquence respiratoire pendant 0,5 h et une mydriase d'une durée de 3 h qui est maximale 1 h après administration
comportement global et réactivités ([10]; doses de 1 et 4 mg/kg): aucune modification nette du comportement, des réactivités, de la température rectale et du diamètre pupillaire par rapport au lot témoin
activité motrice spontanée [11]: augmente nettement l'activité motrice spontanée de la souris
signs observed at high doses [12]: une sédation et une dyspnée
DL-0 (dose maximale non mortelle) ([12]; mouse, ip): > 256 mg/kg
ptôsis réserpinique ([13]; doses 8 to 128 mg/kg): sans modifier le ptôsis
hypothermie réserpinique [13, 24]: antagonise l'hypothermie réserpinique
comportement global et réactivités ([14]; dose de 128 mg/kg): une mydriase modérée
comportement global et réactivités ([14]; doses de 2 à 32 mg/kg): aucune modification nette du comportement et des réactivités
durée du sommeil barbiturique [15]: diminue nettement la durée du sommeil barbiturique
signes de stimulation cholinergique périphérique dûs à l'oxotrémorine ([16]; all doses used): ne modifie pratiquement pas les signes de stimulation cholinergique périphérique dûs à l'oxotrémorine
intensité des tremblements dus à l'oxotrémorine ([16]; doses de 32 mg/kg et 128 mg/kg): diminue faiblement l'intensité des tremblements dus à l'oxotrémorine
hypothermie induite par l'oxotrémorine [16, 24]: s'oppose à l'hypothermie induite par l'oxotrémorine
reprise d'activité motrice chez la souris habituée à son enceinte [17]: entraîne une reprise nette d'activité motrice chez la souris habituée à son enceinte

CC(SC(CNC(C)(C)C)c1ccccc1)C(N)=O (stereo not drawn) [CRL 41 250, fumaratede 2-{[α-(tertiobutylaminomethyl)-benzyl]-thio}-propionamide]
propriétés antidépressives et sédatives [18]: propriétés antidépressives et sédatives
effect on isoprénaline response (pression artérielle diastolique, fréquence cardiaque) [19]: ne modifie pas la pression artérielle diastolique ni la fréquence cardiaque
débit fémoral ([20]; chien anesthésié (nembutal), dose de 19,1 mg/kg I.D.): augmente le débit fémoral
fréquence cardiaque ([20]; chien anesthésié, dose de 1 mg/kg I.D.): provoque une légère bradycardie
pression artérielle ([20]; chien anesthésié, successive I.D. doses 0,1 to 10 mg/kg): aucun effet sur la pression artérielle
effets vasodilatateurs (propriétés cardiovasculaires) ([20]; general statement): effets vasodilatateurs intéressants; also recorded: effets vasodilatateurs bénéfiques
pression artérielle systolique, before noradrénaline ([21]; after dose cumulée 19,1 mg/kg I.D., control 204): 191 mmHg
pression artérielle systolique, after noradrénaline ([21]; noradrénaline 2 µg/kg I.V., after dose cumulée 19,1 mg/kg I.D., control 304): 330 mmHg
hypertension à la noradrénaline ([21]; noradrénaline 2 µg/kg I.V., dose cumulée de 19,1 mg/kg I.D.): légèrement augmentée
pression artérielle diastolique, before isoprénaline ([22]; control 151): 148 mmHg
fréquence cardiaque, before isoprénaline ([22]; control 180): 175 battements/minute
pression artérielle diastolique, after isoprénaline ([22]; isoprénaline 10 µg/kg I.V., control 43): 47 mmHg
fréquence cardiaque, after isoprénaline ([22]; isoprénaline 10 µg/kg I.V., control 271): 265 battements/minute
